Laboratory results: US7799535B1 (priority 1997, dated 2010)
Like-named read-outs stand apart in the source and are kept apart here.

Legend:
[1] = molecular target: rPrPβ (Mesocricetus auratus, UniProt P04273); assay type: binding, hamster; settings: LSB2; each at 0.5 mg/ml; 37° C. for 1 hr
[2] = molecular target: 35S-PrPC (Mesocricetus auratus, UniProt P04273); assay type: biochemical, hamster
[3] = molecular target: T1, Hsp104 (Saccharomyces cerevisiae, UniProt P31539); assay type: biochemical, yeast
T1 sequence (P31539 whole entry, looked up): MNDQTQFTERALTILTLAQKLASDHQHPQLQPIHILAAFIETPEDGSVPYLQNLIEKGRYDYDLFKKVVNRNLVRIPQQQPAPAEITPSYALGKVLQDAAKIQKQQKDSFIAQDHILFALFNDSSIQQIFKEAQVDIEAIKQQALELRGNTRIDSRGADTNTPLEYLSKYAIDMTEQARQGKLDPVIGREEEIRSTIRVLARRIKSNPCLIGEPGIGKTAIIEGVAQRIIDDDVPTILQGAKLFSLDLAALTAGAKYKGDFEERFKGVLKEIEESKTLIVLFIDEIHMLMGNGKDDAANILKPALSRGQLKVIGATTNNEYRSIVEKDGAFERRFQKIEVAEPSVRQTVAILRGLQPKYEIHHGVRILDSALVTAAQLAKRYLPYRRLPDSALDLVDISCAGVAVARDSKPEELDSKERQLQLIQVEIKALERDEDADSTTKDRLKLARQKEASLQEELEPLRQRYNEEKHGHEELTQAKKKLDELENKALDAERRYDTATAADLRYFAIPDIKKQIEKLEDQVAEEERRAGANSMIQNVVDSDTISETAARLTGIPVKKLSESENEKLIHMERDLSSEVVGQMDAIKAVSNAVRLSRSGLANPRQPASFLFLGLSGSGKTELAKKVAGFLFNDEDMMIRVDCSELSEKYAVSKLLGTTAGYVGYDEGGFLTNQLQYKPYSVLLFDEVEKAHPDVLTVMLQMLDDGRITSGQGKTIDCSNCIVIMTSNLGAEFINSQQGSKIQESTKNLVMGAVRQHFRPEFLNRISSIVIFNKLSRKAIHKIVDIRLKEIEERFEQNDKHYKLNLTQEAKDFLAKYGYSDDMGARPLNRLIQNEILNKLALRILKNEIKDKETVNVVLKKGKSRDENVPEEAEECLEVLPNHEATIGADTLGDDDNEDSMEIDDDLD

[4] = molecular target: T1, Hsp104; assay type: binding, yeast
[5] = molecular target: Sup35 (Saccharomyces cerevisiae, UniProt P05453); assay: Circular dichroism spectral shifts of mixtures with Sup35; assay type: binding, yeast; settings: LSB1; 1 hr, 1 mM ATP, 37° C.
Sup35, sequence (P05453 whole entry): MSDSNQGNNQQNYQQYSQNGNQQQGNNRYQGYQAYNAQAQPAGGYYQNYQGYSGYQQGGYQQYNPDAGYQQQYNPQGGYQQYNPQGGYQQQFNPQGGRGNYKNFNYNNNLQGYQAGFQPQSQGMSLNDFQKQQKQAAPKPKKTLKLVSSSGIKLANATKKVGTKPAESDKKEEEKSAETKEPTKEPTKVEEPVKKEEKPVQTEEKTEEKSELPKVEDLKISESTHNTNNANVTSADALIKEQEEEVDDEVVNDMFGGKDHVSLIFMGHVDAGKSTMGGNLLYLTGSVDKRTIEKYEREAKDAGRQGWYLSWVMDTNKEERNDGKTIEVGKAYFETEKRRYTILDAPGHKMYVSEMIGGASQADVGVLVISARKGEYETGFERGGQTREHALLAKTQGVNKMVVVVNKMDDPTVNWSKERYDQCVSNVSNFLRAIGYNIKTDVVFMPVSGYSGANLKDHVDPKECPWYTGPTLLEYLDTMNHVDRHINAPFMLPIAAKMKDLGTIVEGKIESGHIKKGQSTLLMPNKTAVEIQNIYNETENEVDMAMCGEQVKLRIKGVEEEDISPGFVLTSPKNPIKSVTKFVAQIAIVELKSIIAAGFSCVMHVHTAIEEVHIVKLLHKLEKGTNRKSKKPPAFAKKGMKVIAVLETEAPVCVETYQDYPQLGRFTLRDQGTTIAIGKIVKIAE
Experimental: Reactions were incubated for 1 hr with 1 mM ATP at 37° C., and transferred to a 0.1 mm path-length cuvette. Spectra were recorded at 25° C. in a Jasco 715 spectropolarimeter (bandwidth 1.0 nm, response time 16 sec, speed 20 nm/min, step resolution 0.2 nm, accumulations 4).

[6] = reactions seeded with partially denatured PrPSc
[7] = reactions seeded with untreated PrPSc

35S-PrPC, sequence (P04273 23-231 limits assumed): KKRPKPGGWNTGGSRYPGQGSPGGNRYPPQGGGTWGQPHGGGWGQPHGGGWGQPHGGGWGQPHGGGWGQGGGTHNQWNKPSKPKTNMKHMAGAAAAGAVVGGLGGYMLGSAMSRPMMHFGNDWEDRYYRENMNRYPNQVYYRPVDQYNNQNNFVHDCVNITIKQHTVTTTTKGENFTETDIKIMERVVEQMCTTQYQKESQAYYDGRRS
rPrPβ, sequence (P04273 90-231 limits assumed): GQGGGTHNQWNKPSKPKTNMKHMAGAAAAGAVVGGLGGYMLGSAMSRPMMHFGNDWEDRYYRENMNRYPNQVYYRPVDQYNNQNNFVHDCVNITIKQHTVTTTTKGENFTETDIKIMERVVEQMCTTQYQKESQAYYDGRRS

β-galactosidase
CD spectrum of mixture with rPrPβ compared with predicted spectrum [1]: much smaller

OC[C@H]1O[C@@](CO)(O[C@H]2O[C@H](CO)[C@@H](O)[C@H](O)[C@H]2O)[C@@H](O)[C@@H]1O [sucrose]
effect of chemical chaperones on 35S-PrPC conversion [2, 6]: inhibited conversion
effect of chemical chaperones on 35S-PrPC conversion [2, 7]: None of the compounds tested affected
effect of chemical chaperones on 35S-PrPC conversion ([2]; reactions without PrPSc): None of the compounds tested affected

β-amyloid 1-40: a less amyloidogenic derivative of β-amyloid
effect on the ATPase activity of Hsp104 (in words) [3]: Less inhibition

OC[C@H]1O[C@H](O[C@H]2O[C@H](CO)[C@@H](O)[C@H](O)[C@H]2O)[C@H](O)[C@@H](O)[C@@H]1O [trehalose]
effect of chemical chaperones on 35S-PrPC conversion [2, 6]: inhibited conversion
effect of chemical chaperones on 35S-PrPC conversion [2, 7]: None of the compounds tested affected
effect of chemical chaperones on 35S-PrPC conversion ([2]; reactions without PrPSc): None of the compounds tested affected

α-2 macroglobulin
CD spectrum of mixture with Hsp104 compared with predicted spectrum [4]: observed spectra matched the predicted spectra
CD spectrum of mixture with Sup35 compared with predicted spectrum [5]: observed spectra matched the predicted spectra
CD spectrum of mixture with rPrPβ compared with predicted spectrum [1]: much smaller

C[S+](C)[O-] [DMSO, dimethyl sulfoxide]
effect on conversion ([2]; partially denatured PrPSc, higher levels (up to 30%)): virtually eliminated conversion
stimulation of conversion ([2]; partially denatured PrPSc, intermediate levels (1-3%)): 2-3 fold
effect of chemical chaperones on 35S-PrPC conversion [2, 7]: None of the compounds tested affected
effect of chemical chaperones on 35S-PrPC conversion ([2]; reactions without PrPSc): None of the compounds tested affected

α-lactalbumin
CD spectrum of mixture with Hsp104 compared with predicted spectrum [4]: observed spectra matched the predicted spectra
CD spectrum of mixture with Sup35 compared with predicted spectrum [5]: observed spectra matched the predicted spectra
CD spectrum of mixture with rPrPβ compared with predicted spectrum [1]: much smaller

OCC(O)CO [glycerol]
effect of chemical chaperones on 35S-PrPC conversion [2, 6]: no effect
effect of chemical chaperones on 35S-PrPC conversion [2, 7]: None of the compounds tested affected
effect of chemical chaperones on 35S-PrPC conversion ([2]; reactions without PrPSc): None of the compounds tested affected

β-amyloid 1-42: amyloidogenic peptide, fragment found in neural plaques associated with Alzheimer's disease
effect on the ATPase activity of Hsp104 (in words) [3]: inhibited

Nc1ncnc2c1ncn2[C@@H]1O[C@H](COP(=O)(O)OP(=O)(O)OP(=O)(O)O)[C@@H](O)[C@H]1O [ATP]
rate of change in CD spectrum with Sup35 and Hsp104 [4]: markedly increased the rate
